Experimental data published in patent US5153207A, “Piperidine derivative, method for preparation thereof, and a pharmaceutical composition comprising the same” (Hokuriku Pharmaceutical Co., Ltd., priority 1989, dated 1992).
Counter-ions that a name gives are not always drawn.

Key:
[1] = system: hexobarbital-induced anesthesia in mice; design: species or system male ddY mice; conditions: mouse, in vivo
Description: The results of 48 hr homologous passive cutaneous anaphylaxis (PCA) in rats with the monitoring of antiallergic activity and potentiation of hexobarbital-induced anesthesia in mice with the monitoring of central nervous depressive activity are summarized in Table 1. The following compounds were used as the reference compounds.
2. Potentiation of hexobarbital-induced anesthesia in mice
The loss of righting reflex induced by hexobarbital was used as an index of anesthesia. Groups of eight male ddY mice (20-24 hr fasted) weighing 19 to 27 g were treated orally with the test compounds (30 mg/kg) or vehicle. Thirty minutes later, 80 mg/kg of hexobarbital sodium were injected i.p. to the animals and the duration of loss of righting reflex was observed. The percent increase of sleeping time was calculated using the following formula: [formula]

[2] = system: passive cutaneous anaphylaxis (PCA) in rats; assay: 48 hr homologous passive cutaneous anaphylaxis (PCA) in rats; format: in vivo, male Wistar rats; conditions: 1 hr prior to challenge with antigen; for inhibition in vivo at 1 mg/kg: Rattus norvegicus, po, read-out: the percent inhibition of PCA in rats
Procedure: The following compounds were used as the reference compounds. 1.48 hr homologous passive cutaneous anaphylaxis (PCA) in rats a) Preparation of DNP-As and rat anti-DNP-As serum Ascaris extract coupled with 2,4-dinitrophenyl group (DNP-As) was prepared by the method of Koda et al. (Folia pharmacol. japon., 78, 319-334, 1981) and anti-DNP-As containing IgE antibody serum was prepared by the method of Tada and Okumura (J. Immunol., 106, 1019-1025, 1971). […] b) 48 hr homologous passive cutaneous anaphylaxis (PCA) in rats Male Wistar rats weighing 160 to 220 g were sensitized passively by intradermal injection in the back, of 0.05 ml of anti-DNP-As serum, diluted 21-fold with saline. […] After additional thirty minutes, the animals were killed by stunning and the skins were removed. The intensity of the response was evaluated by assaying the amount of dye leaked according to the method of Katayama et al. (Microbiol. Immunol., 22, 89-101, 1978). […] Test compounds were given orally in a dose 1.0 mg/kg 1 hr prior to challenge with antigen. As a control, 5 ml/kg of vehicle (0.5% CMC) alone were given in a similar manner.

SMILES | the percent increase of hexobarbital-induced anesthesia in mice [1] [%] | inhibition in vivo at 1 mg/kg [2] [%] | the percent inhibition of PCA in rats ([2]; 1 mg/kg, p.o., hydrochloride) [%]
Cl.O=C(O)CCCCN1CCC(OC(c2ccccc2)c2ccc(F)cc2)CC1 (racemic) [Example 116, (±)-4-[(4-Fluorophenyl)phenylmethoxy]-1-piperidinevaleric acid hydrochloride] | 31 | 83 | –
Cc1ccc(C(OC2CCN(CCC(=O)O)CC2)c2ccccc2)cc1.Cl (racemic) [Example 70, (±)-4-[(4-Methylphenyl)phenylmethoxy]-1-piperidinepropionic acid hydrochloride] | -2 | 51 | –
Cc1ccc(C(OC2CCN(CCCCCCCC(=O)O)CC2)c2ccccc2)cc1.Cl (racemic) [Example 74, (±)-4-[(4-Methylphenyl)phenylmethoxy]-1-piperidineoctanoic acid hydrochloride] | 21 | 59 | –
CN1CCC(OC(c2ccccc2)c2ccccc2)CC1 [Reference compound A, diphenylpyraline hydrochloride, reference compound] | 75 | -1 | –
COc1ccc(C(OC2CCN(CCCC(=O)O)CC2)c2ccccc2)cc1.Cl (racemic) [Example 87, (±)-4-[(4-Methoxyphenyl)phenylmethoxy]-1-piperidinebutyric acid hydrochloride] | 18 | 54 | –
Cc1ccc(C(OC2CCN(CCCCCCC(=O)O)CC2)c2ccccc2)cc1.Cl (racemic) [Example 73, (±)-4-[(4-Methylphenyl)phenylmethoxy]-1-piperidineheptanoic acid hydrochloride] | 2 | 67 | –
Cl.O=C(O)CCCCN1CCC(OC(c2ccc(F)cc2)c2ccc(F)cc2)CC1 [Example 120, 4-[Bis(4-fluorophenyl)methoxy]-1-piperidinevaleric acid hydrochloride] | -12 | 64 | –
Cl.O=C(O)CCCN1CCC(OC(c2ccccc2)c2ccc(F)cc2)CC1 (racemic) [Example 115, (±)-4-[(4-Fluorophenyl)phenylmethoxy]-1-piperidinebutyric acid hydrochloride] | 21 | 73 | –
COc1ccc(C(OC2CCN(CCC(=O)O)CC2)c2ccccc2)cc1.Cl (racemic) [Example 86, (±)-4-[(4-Methoxyphenyl)phenylmethoxy]-1-piperidinepropionic acid hydrochloride] | 4 | 60 | –
Cc1ccc(C(OC2CCN(CCCCCC(=O)O)CC2)c2ccccc2)cc1.Cl (single isomer, unassigned; (-)) [Example 126, (-)-4-[(4-Methylphenyl)phenylmethoxy]-1-piperidinecaproic acid hydrochloride] | -1 | – | 36
COC(=O)CCCCCN1CCC(OC(c2ccccc2)c2ccc(C)cc2)CC1.Cl (racemic) [Example 1, (±)-Methyl 4-[(4-methylphenyl)phenylmethoxy]-1-piperidinecaproate hydrochloride] | 16 | 77 | –
COc1ccc(C(OC2CCN(CCCCCC(=O)O)CC2)c2ccccc2)cc1.Cl (racemic) [Example 89, (±)-4-[(4-Methoxyphenyl)phenylmethoxy]-1-piperidinecaproic acid hydrochloride] | 20 | 71 | –
Cc1ccc(C(OC2CCN(CCCCCC(=O)O)CC2)c2ccccc2)cc1.Cl (single isomer, unassigned; (+)) [Example 125, (+)-4-[(4-Methylphenyl)phenylmethoxy]-1-piperidinecaproic acid hydrochloride] | 29 | 55 | –
Cc1ccc(C(OC2CCN(CCCCC(=O)O)CC2)c2ccccc2)cc1.Cl (racemic) [Example 72, (±)-4-[(4-Methylphenyl)phenylmethoxy]-1-piperidinevaleric acid hydrochloride] | 12 | 63 | –
Cl.O=C(O)CCN1CCC(OC(c2ccccc2)c2ccccc2)CC1 [Example 65, 4-(Diphenylmethoxy)-1-piperidinepropionic acid hydrochloride] | 29 | 62 | –
Cc1ccc(C(OC2CCN(CCCCCC(=O)O)CC2)c2ccccc2)cc1.Cl (racemic) [Example 64, (±)-4-[(4-Methylphenyl)phenylmethoxy]-1-piperidinecaproic acid hydrochloride] | -8 | 68 | –
Cc1ccc(C(OC2CCN(CCCC(=O)O)CC2)c2ccccc2)cc1.Cl (racemic) [Example 71, (±)-4-[(4-Methylphenyl)phenylmethoxy]-1-piperidinebutyric acid hydrochloride] | 3 | 65 | –
COC(=O)CCCCCN1CCC(OC(c2ccccc2)c2ccc(C)cc2)CC1.Cl (single isomer, unassigned; (+)) [Example 62, (+)-Methyl 4-[(4-methylphenyl)phenylmethoxy]-1-piperidinecaproate hydrochloride] | 29 | 56 | –
Cl.O=C(O)CCCN1CCC(OC(c2ccccc2)c2ccccc2Cl)CC1 (racemic) [Example 112, (±)-4-[(2-Chlorophenyl)phenylmethoxy]-1-piperidinebutyric acid hydrochloride] | 29 | 53 | –
CCc1ccc(C(OC2CCN(CCCCCC(=O)O)CC2)c2ccccc2)cc1.Cl (racemic) [Example 77, (±)-4-[(4-Ethylphenyl)phenylmethoxy]-1-piperidinecaproic acid hydrochloride] | 24 | 68 | –
CCOC(=O)Oc1ccc(C=CC=CC(=O)NCCN2CCC(OC(c3ccccc3)c3ccccc3)CC2)cc1OC [Reference compound B, N-[2-[4-(diphenylmethoxy)piperidino]ethyl]-5-[4-(ethoxycarbonyloxy)-3-methoxyphenyl]-2,4-pentadienoylamide, reference compound] | 35 | 8 | –
